Tests used:
Type in all cases: in vivo
[1] = system: wild buckwheat (POLCO; Polygonum convolvulus); experiment: Test I mixtures of compound 9 with metsulfuron-methyl and chlorsulfuron-metsulfuron-methyl (5:1); conditions: applied alone
Source text: (§1) This test evaluated the effect of mixtures of compound 9 with metsulfuron-methyl and with a 5:1 by weight combination of chlorsulfuron and metsulfuron-methyl on several plant species. Seeds of test plants consisting of wheat (TRZAW; Triticum aestivum), wild buckwheat, (POLCO; Polygonum convolvulus), redroot pigweed (AMARE; Amaranthus retroflexus), wild mustard (SINAR; Sinapis arvensis), catchweed bedstraw (GALAP; Galium aparine), Russian thistle (SASKR; Salsola kali), common chickweed (STEME; Stellaria media), kochia (KCHSC; Kochia scoparia), and lambsquarters (CHEAL; Chenopodium album) were planted into a blend of loam soil and sand. Plants were grown in a greenhouse using supplemental lighting to maintain a photoperiod of about 14 hours; daytime and nighttime temperatures were about 23° C. and 16° C., respectively. Balanced fertilizer was applied through the watering system. The plants were grown for 10 to 23 days so that at time of treatment the plants ranged from 2- to 8-leaf stage. Treatments consisted of Compound 9, metsulfuron-methyl, and chlorsulfuron-metsulfuron-methyl (5:1) alone and in combination. The treatments were formulated in a non-phytotoxic solvent mixture which included a surfactant and applied as a foliage spray using a volume of 280-458 L/ha. Each treatment was replicated three times. […] Treated plants and controls were maintained in the greenhouse and watered as needed with care to not wet the foliage for the first 24 hours after treatment. The effects on the plants approximately 17 days after treatment were visually compared to untreated controls. Plant response ratings were calculated as the means of the three replicates, based on a scale of 0 to 100 where 0 is no effect and 100 is complete control. Colby's Equation was used to determine the herbicidal effects expected from the mixtures.

[2] = system: lambsquarters (CHEAL; Chenopodium album); experiment: as above; conditions: applied alone
Source text: as §1

[3] = system: wild mustard (SINAR; Sinapis arvensis); experiment: as above; conditions: applied alone
Source text: as §1

[4] = system: catchweed bedstraw (GALAP; Galium aparine); experiment: as above; conditions: applied alone
Source text: as §1

[5] = system: Russian thistle (SASKR; Salsola kali); experiment: as above; conditions: applied alone
Source text: as §1

[6] = system: common chickweed (STEME; Stellaria media); experiment: as above; conditions: applied alone
Source text: as §1

[7] = system: wheat (TRZAW; Triticum aestivum); experiment: as above; conditions: applied alone
Source text: as §1

[8] = system: redroot pigweed (AMARE; Amaranthus retroflexus); experiment: as above; conditions: applied alone
Source text: as §1

[9] = system: kochia (KCHSC; Kochia scoparia); experiment: as above; conditions: applied alone
Source text: as §1

[10] = system: ducksalad (HETLI; Heteranthera limosa); experiment: Test J mixtures of compound 58 with azimsulfuron, flooded paddy; conditions: 21 days, scale 0-100
Source text: (§2) This test evaluated the effect of mixtures of compound 58 with azimsulfuron on several plant species. Three plastic pots (ca. 16-cm diameter) per rate were partially filled with sterilized Tama silt loam soil comprising a 35:50:15 ratio of sand, silt and clay and 2.6% organic matter. Separate plantings for each of the three pots were as follows. Seeds from the U.S. of ducksalad (HETLI; Heteranthera limosa), smallflower umbrella sedge (CYPDI; Cyperus difformis) and purple redstem (AMMCO; Ammannia coccinea), were planted into one 16-cm pot for each rate. Seeds from the U.S. of bearded sprangletop (LEFUF; Leptochloa fusca ssp. fascicularis), one stand of 9 or 10 water-seeded rice seedlings (ORYSW; Oryza sativa cv. ‘Japonica-M202’), and one stand of 6 transplanted rice seedlings (ORYSP; Oryza sativa cv. ‘Japonica-M202’) were planted into one 16-cm pot for each rate. Seeds from the U.S. of barnyardgrass (ECHCG; Echinochloa crus-galli), late watergrass (ECOR2; Echinochloa oryzicola), early watergrass (ECHOR; Echinochloa oryzoides) and junglerice (ECHCO; Echinochloa colona) were planted into one 16-cm pot for each rate. Plantings were sequential so that crop and weed species were at the 2.0 to 2.5-leaf stage at time of treatment.
(§3) Potted plants were grown in a greenhouse with day/night temperature settings of 29.5/26.7° C., and supplemental balanced lighting was provided to maintain a 16-hour photoperiod. Test pots were maintained in the greenhouse until test completion.
(§4) At time of treatment, test pots were flooded to 3 cm above the soil surface and then treated by application directly to the paddy water of test compounds formulated in a non-phytotoxic solvent mixture which included a surfactant. The pots were maintained at the 3-cm water depth for the duration of the test. Treatments consisted of compound 58 and azimsulfuron alone and in combination. Effects of treatments on rice and weeds were visually evaluated by comparison to untreated controls after 21 days. Plant response ratings were calculated as the means of the three replicates and are summarized in Table J. The ratings are based on a scale of 0 to 100 where 0 is no effect and 100 is complete control. A dash (-) response means no test result. Colby's Equation was used to determine the herbicidal effects expected from the mixtures.

[11] = system: late watergrass (ECOR2; Echinochloa oryzicola); experiment: as above; conditions: 21 days, scale 0-100
Source text: as §2, §3, §4

[12] = system: purple redstem (AMMCO; Ammannia coccinea); experiment: as above; conditions: 21 days, scale 0-100
Source text: as §2, §3, §4

[13] = system: smallflower umbrella sedge (CYPDI; Cyperus difformis); experiment: as above; conditions: 21 days, scale 0-100
Source text: as §2, §3, §4

[14] = system: junglerice (ECHCO; Echinochloa colona); experiment: as above; conditions: 21 days, scale 0-100
Source text: as §2, §3, §4

[15] = system: early watergrass (ECHOR; Echinochloa oryzoides); experiment: as above; conditions: 21 days, scale 0-100
Source text: as §2, §3, §4

[16] = system: bearded sprangletop (LEFUF; Leptochloa fusca ssp. fascicularis); experiment: as above; conditions: 21 days, scale 0-100
Source text: as §2, §3, §4

## COC(=O)c1nc(C2CC2)nc(N)c1Cl [Compound 9, methyl 6-amino-5-chloro-2-cyclopropyl-4-pyrimidinecarboxylate]
[1]; 4 g a.i./ha
  POLCO Obsd. (observed effect): 17
[1]; 8 g a.i./ha
  POLCO Obsd. (observed effect): 27
[2]; 4 g a.i./ha
  CHEAL Obsd. (observed effect): 45
[2]; 8 g a.i./ha
  CHEAL Obsd. (observed effect): 83
[3]; 4 g a.i./ha
  SINAR Obsd. (observed effect): 45
[3]; 8 g a.i./ha
  SINAR Obsd. (observed effect): 47
[4]; 4 g a.i./ha
  GALAP Obsd. (observed effect): 83
[4]; 8 g a.i./ha
  GALAP Obsd. (observed effect): 87
[5]; 4 g a.i./ha
  SASKR Obsd. (observed effect): 50
[5]; 8 g a.i./ha
  SASKR Obsd. (observed effect): 73
[6]; 4 g a.i./ha
  STEME Obsd. (observed effect): 47
[6]; 8 g a.i./ha
  STEME Obsd. (observed effect): 55
[7]; Chlorsulfuron-Metsulfuron-Methyl series, 8 g a.i./ha
  TRZAW Obsd. (observed effect): 30
[7]; Chlorsulfuron-Metsulfuron-Methyl series, 16 g a.i./ha
  TRZAW Obsd. (observed effect): 43
[7]; Metsulfuron-Methyl series, 4 g a.i./ha
  TRZAW Obsd. (observed effect): 8
[7]; Metsulfuron-Methyl series, 8 g a.i./ha
  TRZAW Obsd. (observed effect): 12
[8]; 4 g a.i./ha
  AMARE Obsd. (observed effect): 62
[8]; 8 g a.i./ha
  AMARE Obsd. (observed effect): 70
[9]; 4 g a.i./ha
  KCHSC Obsd. (observed effect): 70
[9]; 8 g a.i./ha
  KCHSC Obsd. (observed effect): 87

## COC(=O)c1nc(-c2ccc(Cl)cc2)nc(N)c1Cl [Compound 58, methyl 6-amino-5-chloro-2-(4-chlorophenyl)-4-pyrimidinecarboxylate]
[10]; Cmpd 58 16 g a.i./ha alone
  HETLI Obsd.: 100
[10]; Cmpd 58 32 g a.i./ha alone
  HETLI Obsd.: 100
[10]; Cmpd 58 64 g a.i./ha alone
  HETLI Obsd.: 100
[11]; Compound 58 16 g a.i./ha alone
  ECOR2 Obsd.: 0
[11]; Compound 58 32 g a.i./ha alone
  ECOR2 Obsd.: 0
[11]; Compound 58 64 g a.i./ha alone
  ECOR2 Obsd.: 0
[12]; Cmpd 58 16 g a.i./ha alone
  AMMCO Obsd.: 0
[12]; Cmpd 58 32 g a.i./ha alone
  AMMCO Obsd.: 30
[12]; Cmpd 58 64 g a.i./ha alone
  AMMCO Obsd.: 90
[13]; Cmpd 58 16 g a.i./ha alone
  CYPDI Obsd.: 100
[13]; Cmpd 58 32 g a.i./ha alone
  CYPDI Obsd.: 100
[13]; Cmpd 58 64 g a.i./ha alone
  CYPDI Obsd.: 100
[14]; Compound 58 16 g a.i./ha alone
  ECHCO Obsd.: 0
[14]; Compound 58 32 g a.i./ha alone
  ECHCO Obsd.: 0
[14]; Compound 58 64 g a.i./ha alone
  ECHCO Obsd.: 0
[15]; Compound 58 16 g a.i./ha alone
  ECHOR Obsd.: 0
[15]; Compound 58 32 g a.i./ha alone
  ECHOR Obsd.: 0
[15]; Compound 58 64 g a.i./ha alone
  ECHOR Obsd.: 0
[16]; Compound 58 16 g a.i./ha alone
  LEFUF Obsd.: 0
[16]; Compound 58 32 g a.i./ha alone
  LEFUF Obsd.: 0
[16]; Compound 58 64 g a.i./ha alone
  LEFUF Obsd.: 20
